How the values were obtained:
[1] = system: Fall Webworm; test: Field trial, stomach poison test; type: in vivo
Procedure, shortened: (§1)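 Insects, five or ten per dish, are fed air-dried leaves that were dipped in or sprayed with the compound at two or three rates. Mortality is rated 0–9 at 24, 48 and 72 h and averaged per concentration.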

[2] = system: Asparagus Beetles Larvae; test: Field trial, stomach poison test; type: in vivo
Procedure, shortened: as §1

[3] = Acute oral toxicity; conditions: in vivo, read-out: Est. LD50
Source text: (§2) While the compounds of this invention resemble the organic phosphates in being toxic upon ingestion, they differ from the organic phosphates in having a low toxicity when applied to the skin. The following charts give the estimated acute oral and acute dermal toxicities of 2,6-bis(trifluoromethyl)-4-nitrobenzimidazole in several species of mammals.

[4] = Acute dermal toxicity; type: in vivo; conditions: rabbit
Source text: as §2

[5] = system: Fall Webworm; test: Field trial, contact poison test; type: in vivo
Procedure, shortened: (§3)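 Infested host plants were kept in water-filled bottles with cellucotton around the stem and sprayed with different compound concentrations by atomizer at 10 psi from arm's length. Mortality was read at 24, 48 and 72 h on a 0–9 scale (0 = 0-10%, 9 = 91-100% mortality), averaged per concentration.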

[6] = system: Imported Cabbage Worm; test: Field trial, contact poison test; type: in vivo
Procedure, shortened: as §3

[7] = system: Asparagus Beetles Larvae; test: Field trial, contact poison test; type: in vivo
Procedure, shortened: as §3

[8] = system: Corn Earworm; test: Field trial, contact poison test; type: in vivo
Procedure, shortened: as §3

SMILES: O=[N+]([O-])c1cc(C(F)(F)F)cc2nc(C(F)(F)F)[nH]c12 [A, 2,6-bis(trifluoromethyl)-4-nitrobenzimidazole]
- average mortality rating ([1]; 250 ppm): 9 (91-100 percent mortality)
- average mortality rating ([1]; 500 ppm): 0 (0-10 percent)
- average mortality rating ([1]; 750 ppm): 0 (0-10 percent)
- average mortality rating ([1]; 1000 ppm): 0 (0-10 percent)
- average mortality rating ([2]; 5 ppm): 3
- average mortality rating ([2]; 10 ppm): 7
- average mortality rating ([2]; 25 ppm): 7
- LD50 ([3]; guinea pig, male): 15 mg/kg
- LD50 ([3]; mouse, female): 27 mg/kg
- LD50 ([3]; rat, female): 19 to 22 mg/kg
- LD50 ([3]; rat, male): 16 to 20 mg/kg
- LD50 ([4]; in vivo, topical or ocular, male, read-out: Est. LD50): > 500 mg/kg
- Est. LD50 ([4]; female): > 500 mg/kg
- average mortality rating ([5]; 125 ppm): 3
- average mortality rating ([5]; 250 ppm): 5
- average mortality rating ([5]; 500 ppm): 3
- average mortality rating ([5]; 750 ppm): 9 (91-100 percent mortality)
- average mortality rating ([6]; 125 ppm): 3
- average mortality rating ([6]; 250 ppm): 4
- average mortality rating ([6]; 500 ppm): 3
- average mortality rating ([6]; 750 ppm): 7
- average mortality rating ([7]; 10 ppm): 8
- average mortality rating ([7]; 25 ppm): 8
- average mortality rating ([7]; 50 ppm): 9 (91-100 percent mortality)
- average mortality rating ([8]; 62.5 ppm): 0 (0-10 percent)
- average mortality rating ([8]; 125 ppm): 0 (0-10 percent)
- average mortality rating ([8]; 250 ppm): 0 (0-10 percent)
- average mortality rating ([8]; 500 ppm): 0 (0-10 percent)
- average mortality rating ([8]; 750 ppm): 1

— patent US4122184A, “Benzimidazole insecticides” (priority 1977, dated 1978)
